Here are results for 14 compounds from PubChem BioAssay (NCI).

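1) Cells in 96-well plates. 2) Compound, 48 h, 5 concentrations. 3) Linear interpolation between surrounding doses. 4) Unreached endpoint = highest concentration. Here, GI50 denotes the concentration required for 50% inhibition of growth. TGI: concentration producing complete growth inhibition.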 A value given as a limit tells only on which side of the number the result lay.

Some test systems named below: LXFL 529 NSCLC; DMS 273 small cell lung; HCT-116 colon; SF-539 CNS; SNB-78 CNS; A549 NSCLC; M19-MEL melanoma; SNB-19 CNS; DLD-1 colon; HOP-18 NSCLC; MCF7 breast; XF 498 CNS; HS 578T breast; MDA-MB-231 breast; MDA-MB-435.
Holding throughout (experiment): NCI tumour cell line growth inhibition, 48 h

In the case of `S=c1ncc2c([nH]1)C1c3ccccc3C2c2ccccc21`, the TGI with LXFL 529 NSCLC, in the assay on DMS 273 small cell lung, in the assay on HCT-116 colon, in the assay with SF-539 CNS, in the assay with SNB-78 CNS and with A549 NSCLC was above 100 µM each time. In addition, the TGI in the assay with M19-MEL melanoma and with SNB-19 CNS was above 100 µM throughout.
As for `CC(C)C1NC(=O)CC(c2ccccc2)N(N=O)C1c1ccccc1` (configuration not stated), the TGI in the assay on DLD-1 colon, in the assay with DMS 273 small cell lung, with HCT-116 colon, in the assay with HOP-18 NSCLC, in the assay with SF-539 CNS and in the assay with SNB-78 CNS was above 100 µM throughout. Besides, the TGI in the assay on A549 NSCLC, with M19-MEL melanoma, with SNB-19 CNS, in the assay with MCF7 breast and in the assay with XF 498 CNS was above 100 µM throughout.
On to `Cn1c2ccccc2c(=O)c2c(O)cc3c(c21)C=CC(C)(C)O3`, for which the TGI with DLD-1 colon, in the assay with DMS 273 small cell lung, with HCT-116 colon, in the assay on HOP-18 NSCLC, in the assay with SF-539 CNS and in the assay on SNB-78 CNS was above 25 µM in each case. The TGI with A549 NSCLC, in the assay on M19-MEL melanoma, with SNB-19 CNS, with MCF7 breast and in the assay on XF 498 CNS was above 25 µM in each case.
With `O=C(c1ccc(Cl)cc1)c1ccc(OCCCOc2ccc(C(=O)c3ccc(Cl)cc3)cc2Cl)c(Cl)c1`, the TGI in the assay with DLD-1 colon, in the assay with LXFL 529 NSCLC, in the assay with DMS 273 small cell lung, in the assay on HCT-116 colon, in the assay on SF-539 CNS and in the assay on SNB-78 CNS was above 100 µM throughout. The TGI with A549 NSCLC, in the assay on M19-MEL melanoma, with SNB-19 CNS and in the assay on XF 498 CNS was above 100 µM throughout.
For `O=C1Nc2nccnc2C(=O)N2CCC[C@@H]12`, the TGI in the assay on HS 578T breast, with MDA-MB-231 breast, with HCT-116 colon, with SF-539 CNS, in the assay with A549 NSCLC and in the assay on SNB-19 CNS was above 100 µM each time. Moreover, the TGI in the assay on MDA-MB-435 and in the assay with MCF7 breast was above 100 µM in each case.
Regarding `Cc1ccc2c(=O)cc(-c3ccc4ccccc4c3)[nH]c2n1`, the TGI in the assay with HS 578T breast was 20 µM; with MDA-MB-231 breast, above 100 µM; with HCT-116 colon, 87.9 µM; in the assay on SF-539 CNS it was 54.1 µM; in the assay on A549 NSCLC, above 100 µM; with SNB-19 CNS, above 100 µM. Further, the TGI was 4.16 µM in the assay with MDA-MB-435 and 37.9 µM with MCF7 breast. The GI50 in the assay with HCT-116 colon is 4 µM; in the assay with MDA-MB-435, 1.57 µM.
On to `O=C(/C=C/c1ccccc1)Nc1ccccc1SCCCCl`, for which the TGI in the assay with HS 578T breast was above 29.3 µM; with MDA-MB-231 breast it was 74.5 µM; with HCT-116 colon it was 39.1 µM; with SF-539 CNS, 39.8 µM; with A549 NSCLC, above 100 µM; in the assay with SNB-19 CNS, above 95.4 µM. In addition, the values for the TGI with MDA-MB-435 and with MCF7 breast were 37 µM and above 100 µM, respectively.
With `O=C1/C(=C/c2ccccc2[N+](=O)[O-])N=C(c2ccccc2)N1c1nc2ccccc2s1`, the TGI with HS 578T breast was 62.4 µM; in the assay with MDA-MB-231 breast, above 100 µM; with HCT-116 colon, 38.5 µM; in the assay on SF-539 CNS, 81.3 µM; in the assay on A549 NSCLC, above 100 µM; in the assay with SNB-19 CNS, above 100 µM. Further, the figures for the TGI in the assay with MDA-MB-435 and with MCF7 breast were 54.1 µM and 90.4 µM, respectively.
Turning to `COc1ccc(OC)c2c1C=CC(Br)=CC2`, the TGI in the assay on HS 578T breast is above 1 µM; with MDA-MB-231 breast, 0.958 µM; with HCT-116 colon it was 0.672 µM; in the assay with SF-539 CNS it was above 1 µM; with A549 NSCLC, above 1 µM; in the assay with SNB-19 CNS, above 1 µM. The TGI with MDA-MB-435 was 0.853 µM; in the assay with MCF7 breast, above 1 µM.
On to `CCOC(=O)NC(Nc1ccc(F)cc1)(C(=O)OCC)C(F)(F)F` (configuration not stated), for which the TGI with HS 578T breast, with MDA-MB-231 breast, in the assay on HCT-116 colon, with SF-539 CNS, in the assay with A549 NSCLC and in the assay with SNB-19 CNS was above 100 µM throughout. Also, the TGI in the assay with MDA-MB-435 and with MCF7 breast was above 100 µM in each case.
`COc1cccc(C2SC(N)=Nc3c2c(C)nn3C(=O)Cc2ccccc2)c1` (configuration not stated): the TGI with HS 578T breast, in the assay on MDA-MB-231 breast, with HCT-116 colon, in the assay on SF-539 CNS, in the assay with A549 NSCLC and in the assay on SNB-19 CNS was above 100 µM in each case. Further, the TGI with MDA-MB-435 and in the assay with MCF7 breast was above 100 µM throughout.
On to `CCOC(=O)CC(NC(=O)c1[nH]cnc1/N=N/N(C)C)C(=O)OCC` (configuration not stated), for which the TGI in the assay with DLD-1 colon, in the assay on LXFL 529 NSCLC, in the assay on DMS 273 small cell lung, in the assay with HCT-116 colon, with SF-539 CNS and in the assay with A549 NSCLC was above 100 µM each time. Further, the TGI with M19-MEL melanoma and with SNB-19 CNS was above 100 µM each time.
For the compound `[B-][P+](CC[P+]1([B-])[C@@H](C)[C@@H](O)[C@H](O)[C@@H]1C)(c1ccccc1)c1ccccc1OC` (some centres not stated), the TGI worked out at 22.6 µM with HS 578T breast; 29.5 µM with MDA-MB-231 breast; 35.3 µM in the assay with HCT-116 colon; 31.6 µM in the assay on SF-539 CNS; 28.8 µM with A549 NSCLC; 30.9 µM in the assay with SNB-19 CNS. In addition, the TGI in the assay with MDA-MB-435 worked out at 30.4 µM; with MCF7 breast, 35.6 µM.
As for `CCc1ccc(COC(=O)C2=C(C)NC(C)=C(C(=O)OCc3ccc(CC)cn3)C2C2=COCCO2)nc1`, the TGI in the assay with HS 578T breast is 37.7 µM; in the assay with MDA-MB-231 breast it was 45.8 µM; with HCT-116 colon, 31 µM; in the assay with SF-539 CNS it was 27.7 µM; in the assay with A549 NSCLC, above 100 µM; with SNB-19 CNS, 54.5 µM. The TGI is 38.3 µM in the assay on MDA-MB-435 and 43 µM in the assay on MCF7 breast.
